Source: patent US6992064B2, “N-alkylglycine trimeres capable of protecting neurons against excitotoxic aggressions and compositions containing such trimeres” (Diverdrugs, S.L., priority 2000, dated 2006)

Columns and labels:
[1] = tested on: ammonium-induced neurotoxicity in mice; experiment: Neurotoxicity model in mice induced by injection of high doses of ammonium (death due to NMDA receptor hyperactivation); type: in vivo; conditions: 0.05–0.1 mg/g intraperitoneal, 10 minutes before 12 mmol/kg ammonium acetate; 24 hours post-injection
Description: A neurotoxicity model was used on mice induced by the injection of high doses of ammonium, the result of which is the death of the animal due to the hyperactivation of the NMDA receptor. The test consists in the intraperitoneal injection in mice of an amount of N-alkylglycine trimere of 0.05–0.1 mg/g, followed, after 10 minutes, with an injection of 12 mmol/kg of ammonium acetate. After 24 hours post-injection, the number of dead mice was determined. The N-alkylglycine trimere identified as compound [24] protected 82% of the mice, whilst the N-alkylglycine trimere identified as compound [23a] protected 100% of the animals.

[2] = tested on: primary cultures of rat cerebellum neurones; experiment: Neuroprotection of primary cultures of rat cerebellar neurones against excitotoxic aggression (L-glutamate/glycine); type: cell-based; conditions: for decrease of neuronal death: rat cerebellar neurones, 10 μM glycine, prolonged (≧3 h) L-glutamate, read 24 hours post-aggression; for neuroprotector activity (enantiomers versus racemic mixture): primary cultures of cerebellar neurons, L-glutamate 1 mM
Description: The neuroprotector mechanism implies, at least in part, the blocking of the glutamate ionotropic receptors, as is made manifest by the inhibition of the ionic current activated by the NMDA type of glutamatergic receptor agonist expressed in X. laevis ovocites (19,20). An important advantage of these biological tests is that they permit the search for neuroprotectors in functionally active systems, increasing the potentiality of its in vivo use.
Two complementary biological tests were used in order to evaluate the biological activity of the N-alkylglycine trimeres obtained in Example 1.1. The first evaluates the efficiency and power with which said compounds block the ionic current activated by agonists in X. laevis ovocites that express the NMDA receptor. The second, determines the neuroprotector efficiency of the N-alklyglycine trimeres in primary cultures of neurones subjected to an excitotoxic aggression, such as prolonged exposure to L-glutamate and glycine.
It was also observed that the N-alkylglycine trimeres tested protected primary neuronal cultures coming from the cerebellum of rats pre-exposed to 10 μM glycine versus the prolonged exposure (≧3 h) of L-glutamate or N-methyl-D-aspartate at a concentration of […]. The test consists of extracting the cerebellar neurones of baby rats, 7–8 days old, cultivating them in plates in a culture medium supplemented with bovine foetal serum (22). After 13–19 days under culture, the excitotoxic aggression with L-glutamate is performed, monitoring the neuronal death in the absence and presence of the N-alkylglycine trimeres 24 hours post-aggression using two fluorescent dyes: the fluorescent diacetate that indicates the number of viable cells, and the propydium iodine that informs of the number of dead cells (23). As an example, the N-alkylglycine trimere identified as compound [1] decreased a 95% of the neuronal death at a concentration of 30 μg/ml; compound [5] an 85% at 30 μg/ml; compound [23a] a 57% at a concentration of 50 μg/ml, and compound [24] a 60% at 50 μg/ml.
On the other hand, due to the fact that some formula I N-alkylglycine trimeres may be presented as stereoisomers, the possibility that the neuroprotector activity of the racemic mixture preferably corresponded to one of the isomers, was evaluated. For this, the neuroprotector activity of the enantiomers identified as [23b] and [23c] was evaluated, (see Table 1) in primary cultures of cerebellar neurons exposed to excitotoxic aggression, such as the incubation with L-glutamate 1 mM comparing it with the neuroprotector activity of a racemic mixture of said enantiomers. […] Likewise, said power was similar to the one presented by the racemic mixture.

Structure (SMILES) | neuroprotector activity (enantiomers versus racemic mixture) [2] | decrease of neuronal death ([2]; 30 μg/ml) [%] | other results
CCC(C)N(CC(N)=O)C(=O)CN(C(=O)CNCCN1CCCC1)C1CC1 (racemic) [compound [23a], [N-[2-(N-pyrrolidinyl)ethyl]glycyl]-[N-(cyclopropyl)glycyl]-N-((R,S)-sec-butyl)glycinamide] |  |  | mice protected from death [1]: 100%; decrease of neuronal death ([2]; 50 μg/ml): 57%
CC[C@@H](C)NC(=O)CN(C(=O)CNCCN1CCCC1)C(=O)CNC1CC1 [[23b], [N-[2-(N-pyrrolidinyl)ethyl]glycyl]-[N-(cyclopropyl)glycyl]-N-((R)-sec-butyl)glycinamide] | neuroprotectors with equal power |  | 
CC[C@H](C)NC(=O)CN(C(=O)CNCCN1CCCC1)C(=O)CNC1CC1 [[23c], [N-[2-(N-pyrrolidinyl)ethyl]glycyl]-[N-(cyclopropyl)glycyl]-N-((S)-sec-butyl)glycinamide] | neuroprotectors with equal power |  | 
CCN(CC)CCCN(CC(=O)N(CCNC(C)=O)CC(N)=O)C(=O)CNCCC(c1ccccc1)c1ccccc1 [compound [1]] [[N-[3,3-diphenylpropyl]glycyl]-[N-[3-(N,N-diethylamine)propyl]glycyl]-N-[2-(methylcarbonylamine)ethyl]glycinamide] |  | 95 | 
CCN(CC)CCCN(CC(=O)N(CCNC(C)=O)CC(N)=O)C(=O)CNCCC(c1ccccc1)c1ccccc1 [compound [5]] [[N-[3,3-diphenylpropyl]glycyl]-[N-[3-N,N-diethylamine)propyl]glycyl]-N-[2-(methylcarbonylamine)ethyl]glycinamide] |  | 85 | 
